Assay results as given in patent US20240092756A1, “METHODS AND COMPOSITION FOR KRAS MODIFICATIONS” (2692372 ONTARIO, INC., priority 2020, published 2024).

Columns and labels:
KRAS G12C = KRAS G12C (Homo sapiens, UniProt P01116, G12C); test: SOS1-catalyzed KRAS coupled nucleotide exchange assay (Alpha technology); format: biochemical; design: His; key: A: KRAS G12C bound and modulated; conditions: inhibition of SOS1 mediated KRAS nucleotide exchange
Protocol: Method I: The inhibition of the SOS1-catalyzed nucleotide exchange activity of KRAS (e.g., KRAS G12C/C118A) was measured using Alpha (Amplified Luminescent Proximity Homogeneous Assay) technology. 20 nM GDP-bound human KRAS (G12C/C118A) protein was incubated with two-fold serially-diluted test compound or DMSO for 5 minutes at ambient temperature in reaction buffer (25 mM HEPES, pH 7.4; 10 mM MgCl2; 0.01% Triton X-100). For all subsequent steps, DTT was added to the reaction buffer at a final concentration of 1 mM. Next, GTP and SOS-1 were added in DTT-reaction buffer at final concentrations of 1.25 mM or 500 nM, respectively, and incubated at RT for 30 minutes. Finally, c-RAF RBD (50 nM final), Alpha glutathione donor beads (PerkinElmer; 20 μg/mL final), and AlphaLISAnickel chelate acceptor beads (PerkinElmer; 20 μg/mL final), all diluted in DTT-reaction buffer, were added. The reaction mixture was incubated at RT for 5 min, and then the plates were read on an EnVision® Multilabel Reader using the AlphaScreen protocol. Luminescence signal was measured at 570 nm following a 180 ms excitation at 680 nm. Signal intensity corresponded with the association of c-RAF RBD with GTP-bound KRAS G12C/C118A and was normalized to DMSO control.
Method II: Inhibition of the SOS1-catalyzed nucleotide exchange activity of KRAS^G12C was measured using Alpha technology (PerkinElmer). 50 nM GDP-bound human KRAS^G12C protein was incubated with serially-diluted compound or DMSO for 2 hrs at RT in RBD-RAS binding buffer (BPSBioscience). 1 mM GTP and 500 nM SOS-1 were added to the reaction mixture and incubated at RT for 30 min. GST-tagged RBD-cRAF was then added to the reaction mixture at a final concentration of 2.5 nM and incubated at RT for 30 min. Finally, Alpha Glutathione acceptor beads and Nickel chelate donor beads (PerkinElmer) were diluted to 1:500 and 1:250, respectively, and added to the reaction mixture. The final reaction was incubated at RT for 30 min. Plates were read on a TECAN SPARK® Multiplate Reader. The luminescence signal was measured at 615 nm following excitation at 680 nm. Signal intensity was normalized to DMSO control.

[1] = tested on: phospho-ERK1/2 in MIA PaCa-2 cells (express KRAS G12C); test: ERK1/2 phosphorylation in MIA PaCa-2 cells; format: cell-based, human; design: key: X: KRAS G12C bound and modulated in cells
Protocol: MIA PaCa-2 cells were cultured in Dulbecco's Modified Eagle's Medium (Wisent) supplemented with 10% FBS, 2.5% horse serum, and 1% penicillin/streptomycin. Cells were seeded in 6-well plates at 500,000 cells/well and incubated at 37° C., 5% CO2 for 16 hours. Cells were treated with the indicated concentrations of compound or DMSO alone and incubated at 37° C., 5% CO2 for 6 or 24 hours. Conditioned media was discarded, and adherent cells were washed with PBS before they were scraped. Cell suspensions were centrifugated at 2,000 RPM for 5 minutes at 4° C. and supernatants were discarded. Cell pellets were resuspended with 1×RIPA buffer (Millipore) and incubated on ice for 15 minutes. Protein lysates were extracted by centrifugating at 20,000 RPM for 20 minutes at 4° C. Proteins were separated and total KRas protein levels were quantified by Simple Western Immunoassay (ProteinSimple) using the 2-40 kDa Separation Module for Jess according to the manufacturer's protocol, using a protein concentration of 0.5 μg/μl and antibodies targeting KRas (clone #4F3, Sigma) and GAPDH (clone #14C10, Cell Signaling) diluted to 1:10 and 1:1600, respectively, where the latter was used as a loading control. A 3:1 ratio of rabbit to mouse HRP-conjugated secondary antibodies was used for detection. KRas protein levels were quantified relative to GAPDH loading levels and subsequently normalized to the DMSO control. Phosphorylated ERK1/2 levels were quantified by Simple Western Immunoassay (ProteinSimple) using the Protein Normalization Assay Module for Jess according to the manufacturer's protocol using a protein concentration of 0.5 μg/μl and an antibody targeting phosphor-ERK1/2 (clone #D13.14.4E, Cell Signalling) diluted to 1:10. Phosphorylated ERK1/2 levels were normalized to the Jess Protein Normalization Reagent loading control and subsequently to the DMSO control.
MIA PaCa-2 cells were cultured in Dulbecco's Modified Eagle's Medium (Wisent) supplemented with 10% FBS, 2.5% horse serum, and 1% penicillin/streptomycin. Cells were seeded in 96-well plates at a density of 25,000 cells/well and incubated at 37° C., 5% CO2 for 24 hours. The next day, cells were starved in cell culture media containing 1% FBS only at 37° C., 5% CO2 for 16 hours. Following starvation, serially-diluted compounds or DMSO alone were added to cells and incubated at 37° C., 5% CO2 for 1 or 3 hours. Prior to cell lysis, 25 ng/ml human epidermal growth factor (hEGF) (Sigma) was added to the cells and incubated at 37° C., 5% CO2 for 10 minutes. Conditioned media was discarded, and adherent cells lysed and basal ERK1/2 phosphorylation levels were measured using the Phospho-ERK (Thr202/Tyr204) Cellular HTRF kit (Perkin Elmer) according to the manufacturer's protocol. The fluorescent signal of the acceptor antibody at a wavelength of 665 nm was normalized to that of the donor antibody at 620 nm. HTRF ratios were plotted and relative IC50 values were obtained using Prism (GraphPad).

[2] = target: KRAS G12C Lite (SEQ ID NO:3) (Homo sapiens, UniProt P01116, C118S/C51S/C80S/G12C/S136P/S39C); test: Intact mass analysis (LC-MS) of covalent modification, KRAS G12C Lite; format: binding; design: key to KRAS Lite Modification: a: KRAS Lite modified; conditions: intact mass spectrometry; covalent modification of KRAS G12C Lite
Protocol: The covalent modification of the proteins with the compounds were evaluated using intact mass analysis by liquid chromatography-mass spectrometry instrument (LC-MS/MS).
The reaction solution (20 μL) was prepared in 96-well plate and contained the protein (2 μM), the compound (100 μM), HEPES buffer (20 mM, pH 8), 2% DMSO, 2% glycerol, and 150 mM NaCl. The reaction was allowed to proceed for 24 h at 25° C. The reaction solution (1 μL) was injected into the LC/MS/MS without any further sample preparation.
The LC-MS/MS instrument comprises of a Waters G2-XS quadrupole-time of flight (QTof) mass spectrometer and a Waters Acuity I-class Ultra-High Performance Liquid Chromatography (UPLC) system. The I-class UPLC system includes a binary solvent manager (BSM), and an Acquity sample manager (SM). The mobile phase consisted of: A) 0.1% (v/v) formic acid in MilliQ water; B) 0.1% (v/v) formic acid acetonitrile. Gradients were run over 5 min and proceeded as follows: A:B, 85:15, 0.0-0.7 min, 85:15→15:85, 0.7-1.5 min, 10:90, 1.5-4 min, 10:90→85:15, 4-4.5 min, 85:15, 4.5-5 min. The analytical column was a Waters BEH C4 column 1.7 μm (50×1 mm) column with pore sizes of 300 Å. The TOF MS data was collected in positive ion mode (m/z of 400-2000 Da) using MassLynx software (Waters).
The spectral deconvolution was performed using UNIFI software (Waters). The added mass of the protein upon covalent modification to cysteine residues were specified. Multiple modification of up to 8 cysteine was allowed. All the adducts with signal intensities of <2% of the base peak were ignored. The % modification was calculated as the adduct signal intensity over the total intensities of the protein peaks and the adducts.

Row | KRAS-SOS1 Nucleotide Exchange (KRAS G12C) | KRAS Lite Modification [2] | Structure (SMILES) | pERK - MIA PaCa-2 - (6 hours, 5 uM) [1]
1 | A | – | Cc1cccc(C)c1-c1cc2nccc(N3CCN(c4c(F)c(F)c(F)c(F)c4S(C)(=O)=O)C[C@@H]3C)c2cc1Cl [Compound 44A, (S)-6-chloro-7-(2,6-dimethylphenyl)-4-(2-methyl-4-(2,3,4,5-tetrafluoro-6-(methylsulfonyl)phenyl)piperazin-1-yl)quinoline] | X
2 | – | a | COc1c(F)c(F)c(F)c(F)c1S(=O)(=O)Nc1nc(=O)n(-c2c(C)ccnc2C(C)C)c2nc(Cl)c(F)cc12 [Compound 8A, N-(7-chloro-6-fluoro-1-(2-isopropyl-4-methylpyridin-3-yl)-2-oxo-1,2-dihydropyrido[2,3-d]pyrimidin-4-yl)-2,3,4,5-tetrafluoro-6-methoxybenzenesulfonamide] | –
3 | A | – | Cc1ccnc(C(C)C)c1-n1c(=O)nc(NS(=O)(=O)c2c(F)c(F)c(F)c(F)c2OCF)c2cc(F)c(-c3c(O)cccc3F)nc21 (atropisomer, axis not shown) [Compound 10A, 2,3,4,5-tetrafluoro-N-(6-fluoro-7-(2-fluoro-6-hydroxyphenyl)-1-(2-isopropyl-4-methylpyridin-3-yl)-2-oxo-1,2-dihydropyrido[2,3-d]pyrimidin-4-yl)-6-(fluoromethoxy)benzenesulfonamide] | X
4 | – | a | COc1c(F)c(F)c(F)c(F)c1S(=O)(=O)Nc1nc(=O)n(-c2c(C)ccnc2C(C)C)c2nc(-c3c(O)cccc3F)c(F)cc12 (atropisomer, axis not shown) [Compound 9A, 2,3,4,5-tetrafluoro-N-(6-fluoro-7-(2-fluoro-6-hydroxyphenyl)-1-(2-isopropyl-4-methylpyridin-3-yl)-2-oxo-1,2-dihydropyrido[2,3-d]pyrimidin-4-yl)-6-methoxybenzenesulfonamide] | X
5 | A | a | Cc1ccnc(C(C)C)c1-n1c(=O)nc(NS(=O)(=O)c2c(F)c(F)c(F)c(F)c2F)c2cc(F)c(Cl)nc21 [Compound 4A, N-(7-chloro-6-fluoro-1-(2-isopropyl-4-methylpyridin-3-yl)-2-oxo-1,2-dihydropyrido[2,3-d]pyrimidin-4-yl)-2,3,4,5,6-pentafluorobenzenesulfonamide] | X

More lines, now with the values behind:

Row | Structure (SMILES) | KRAS-SOS1 Nucleotide Exchange (KRAS G12C) | KRAS Lite Modification [2] | pERK - MIA PaCa-2 - (6 hours, 5 uM) [1]
6 | O=S(=O)(c1c(O)c(F)c(F)c(F)c1F)N1CCN(c2ncnc3c2CCN(c2cccc4ccccc24)C3)CC1 [Compound 31A, 2,3,4,5-tetrafluoro-6-((4-(7-(naphthalen-1-yl)-5,6,7,8-tetrahydropyrido[3,4-d]pyrimidin-4-yl)piperazin-1-yl)sulfonyl)phenol] | A | a | –
7 | C[S+]([O-])c1c(F)c(F)c(F)c(F)c1N1CC(Nc2ncnc3cc(-c4ccccc4F)c(Cl)cc23)C1 (racemic) [Compound 48A, 6-chloro-7-(2-fluorophenyl)-N-(1-(2,3,4,5-tetrafluoro-6-(methylsulfinyl)phenyl)azetidin-3-yl)quinazolin-4-amine] | A | – | X
8 | O=S(=O)(c1c(F)c(F)c(F)c(F)c1C(F)(F)F)N1CCN(c2ncnc3c2CCN(c2cc(O)cc4ccccc24)C3)CC1 [Compound 41A, 4-(4-(4-((2,3,4,5-tetrafluoro-6-(trifluoromethyl)phenyl)sulfonyl)piperazin-1-yl)-5,8-dihydropyrido[3,4-d]pyrimidin-7(6H)-yl)naphthalen-2-ol] | A | – | X
9 | O=S(=O)(NC1CN(c2ncnc3c2CCN(c2cccc4ccccc24)C3)C1)c1c(F)c(F)c(F)c(F)c1C(F)(F)F [Compound 35A, 2,3,4,5-tetrafluoro-N-(1-(7-(naphthalen-1-yl)-5,6,7,8-tetrahydropyrido[3,4-d]pyrimidin-4-yl)azetidin-3-yl)-6-(trifluoromethyl)benzenesulfonamide] | A | – | X
10 | C[S+]([O-])c1c(F)c(F)c(F)c(F)c1N1CCN(c2ncnc3c2CCN(c2cccc4cccc(Cl)c24)C3)CC1 (racemic) [Compound 43A, 7-(8-chloronaphthalen-1-yl)-4-(4-(2,3,4,5-tetrafluoro-6-(methylsulfinyl)phenyl)piperazin-1-yl)-5,6,7,8-tetrahydropyrido[3,4-d]pyrimidine] | – | a | –
11 | O=S(=O)(NC1CN(c2ncnc3c2CCN(c2cccc4ccccc24)C3)C1)c1c(F)c(F)c(F)c(F)c1F [Compound 20A, 2,3,4,5,6-pentafluoro-N-(1-(7-(naphthalen-1-yl)-5,6,7,8-tetrahydropyrido[3,4-d]pyrimidin-4-yl)azetidin-3-yl)benzenesulfonamide] | A | – | X
